Reference: US20060229299A1, “5ht2c Receptor antagonists in the treatment of schizophrenia” (priority 2003, published 2006)
Read-outs that look alike come from different tables or passages of the source.

Tests used:
[1] = test system: 5HT2A/2C mediated elevations of prolactin levels; settings: known from literature; cited from earlier work
[2] = rhesus monkeys; cited from earlier work
5-HT2A/D2 = 5-HT2A/D2 receptor affinity ratio; format: binding, human; settings: Table 2; affinity ratio from data of Table 1
5-HT1A receptor [3] = target: 5-HT1A receptor (Homo sapiens, UniProt P08908); settings: cited from earlier work
[4] = target: mACh, muscarinic acetylcholine receptor; settings: human; cited from earlier work
H1 histamine receptor = H1 histamine receptor (Homo sapiens, UniProt P35367); settings: cited from earlier work
D1 dopamine receptor = D1 dopamine receptor (Homo sapiens, UniProt P21728); settings: cited from earlier work
5-HT2C/D2 = 5-HT2C/D2 receptor affinity ratio; format: binding, human; settings: Table 2; affinity ratio from data of Table 1
[5] = target: D2-L (long form of D2 receptor) (Homo sapiens, UniProt P14416); settings: cited from earlier work
sigma, σ receptor [6] = settings: human; cited from earlier work
α1-adrenoceptor [7] = settings: human; cited from earlier work
5-HT7 receptor = 5-HT7 receptor (Rattus norvegicus, UniProt P32305); settings: cited from earlier work
[8] = test system: 5-HT2C receptor relative to 5-HT2A and D2 receptors; test: Relative 5-HT2C affinity (formula I, sum of 5-HT2C/5-HT2A and 5-HT2C/D2 affinity ratios)
H1/D2 = H1/D2 receptor affinity ratio; format: binding, human; settings: Table 2; affinity ratio from data of Table 1
D3 dopamine receptor = D3 dopamine receptor (Homo sapiens, UniProt P35462); settings: cited from earlier work
5-HT2C/5-HT2A = 5-HT2C/5-HT2A receptor affinity ratio; format: binding, human; settings: Table 2; affinity ratio from data of Table 1
[9] = target: D2-S (short form of D2 receptor) (Homo sapiens, UniProt P14416); settings: cited from earlier work
5-HT3 receptor = 5-HT3 receptor (Homo sapiens, UniProt P46098); settings: cited from earlier work
5-HT6 receptor [10] = target: 5-HT6 receptor (Rattus norvegicus, UniProt P31388); settings: cited from earlier work
α2-adrenoceptor [11] = settings: human; cited from earlier work
5-HT2C receptor [12] = target: T1, 5-HT2C receptor (Homo sapiens, UniProt P28335); settings: cited from earlier work
T1 sequence (P28335 33-458): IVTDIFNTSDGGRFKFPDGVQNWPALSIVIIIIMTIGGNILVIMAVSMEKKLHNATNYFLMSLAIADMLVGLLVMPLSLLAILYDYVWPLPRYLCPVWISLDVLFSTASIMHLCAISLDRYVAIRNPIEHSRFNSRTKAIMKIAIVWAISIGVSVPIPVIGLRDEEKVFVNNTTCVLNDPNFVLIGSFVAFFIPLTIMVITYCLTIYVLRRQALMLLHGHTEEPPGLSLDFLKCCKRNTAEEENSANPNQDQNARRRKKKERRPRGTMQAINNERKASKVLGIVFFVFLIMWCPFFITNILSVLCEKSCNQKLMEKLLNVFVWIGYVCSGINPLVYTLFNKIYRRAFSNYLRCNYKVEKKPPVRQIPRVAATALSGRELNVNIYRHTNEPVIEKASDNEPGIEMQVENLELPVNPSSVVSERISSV

α2-adrenoceptor [13] = settings: rat; cited from earlier work
α1-adrenoceptor [14] = settings: rat; cited from earlier work
5-HT1A receptor [15] = target: T2, 5-HT1A receptor (Rattus norvegicus, UniProt P19327); settings: cited from earlier work
T2 sequence (P19327 1-422): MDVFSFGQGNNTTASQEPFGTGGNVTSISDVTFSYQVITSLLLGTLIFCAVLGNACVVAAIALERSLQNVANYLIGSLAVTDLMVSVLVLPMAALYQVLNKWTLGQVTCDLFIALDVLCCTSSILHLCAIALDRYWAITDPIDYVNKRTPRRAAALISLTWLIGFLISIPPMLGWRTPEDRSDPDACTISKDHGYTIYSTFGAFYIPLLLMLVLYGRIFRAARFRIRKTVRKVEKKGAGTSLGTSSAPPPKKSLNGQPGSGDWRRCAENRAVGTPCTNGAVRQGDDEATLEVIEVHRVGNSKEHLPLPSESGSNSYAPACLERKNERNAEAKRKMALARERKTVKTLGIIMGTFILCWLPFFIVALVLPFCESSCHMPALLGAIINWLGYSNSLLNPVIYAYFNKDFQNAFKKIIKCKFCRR

[16] = target: mACh, muscarinic acetylcholine receptor; settings: rat; cited from earlier work
sigma, σ receptor [17] = settings: rat; cited from earlier work
5-HT2A receptor = 5-HT2A receptor (Homo sapiens, UniProt P28223); settings: Table 3; expressed as pKi or pKd values; known affinities; cited from earlier work
5-HT2C receptor [18] = target: T1, 5-HT2C receptor; settings: active metabolite in man; U.S. Pat. No. 6,093,747; cited from earlier work
D2 receptor = D2 receptor (Homo sapiens, UniProt P14416); settings: Table 3; expressed as pKi or pKd values; known affinities; cited from earlier work
D4 dopamine receptor [19] = target: T3, D4 dopamine receptor (Homo sapiens, UniProt P21917); settings: cited from earlier work
T3 sequence (P21917 1-419): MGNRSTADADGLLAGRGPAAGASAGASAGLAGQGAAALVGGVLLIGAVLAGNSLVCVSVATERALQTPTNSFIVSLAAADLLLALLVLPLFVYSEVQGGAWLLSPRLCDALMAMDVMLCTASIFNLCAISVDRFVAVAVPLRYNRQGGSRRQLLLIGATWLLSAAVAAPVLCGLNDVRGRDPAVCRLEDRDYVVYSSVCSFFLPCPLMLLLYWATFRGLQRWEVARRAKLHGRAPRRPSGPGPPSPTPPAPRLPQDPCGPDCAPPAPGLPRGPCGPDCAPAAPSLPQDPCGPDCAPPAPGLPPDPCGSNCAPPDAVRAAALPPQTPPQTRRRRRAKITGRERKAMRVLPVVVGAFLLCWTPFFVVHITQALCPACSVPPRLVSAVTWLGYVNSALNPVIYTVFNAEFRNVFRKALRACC

D4 dopamine receptor [20] = target: T4, D4 dopamine receptor (Rattus norvegicus, UniProt P30729); settings: cited from earlier work
T4 sequence (P30729 1-387): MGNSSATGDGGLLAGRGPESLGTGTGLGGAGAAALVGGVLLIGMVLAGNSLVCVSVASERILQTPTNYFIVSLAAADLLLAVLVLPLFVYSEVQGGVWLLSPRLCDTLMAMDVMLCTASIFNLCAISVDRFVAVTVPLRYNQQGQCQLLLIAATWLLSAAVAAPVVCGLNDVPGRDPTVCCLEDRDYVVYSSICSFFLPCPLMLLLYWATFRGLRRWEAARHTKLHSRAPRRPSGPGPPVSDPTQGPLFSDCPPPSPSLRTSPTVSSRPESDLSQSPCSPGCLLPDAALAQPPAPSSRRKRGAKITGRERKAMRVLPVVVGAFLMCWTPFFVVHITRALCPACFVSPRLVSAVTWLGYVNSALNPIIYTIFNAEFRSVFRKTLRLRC

5-HT2C receptor [21] = target: 5-HT2C receptor (Rattus norvegicus, UniProt P08909); settings: cited from earlier work
[22] = parameters: key: 1-high; 2-medium; 3-low probability; settings: Table 4A; grading of probability from literature reports; cited from earlier work
[23] = parameters: key: 1-high; 2-medium; 3-low probability; settings: Table 4A; grading of probability from literature reports; cited from earlier work; remark: listed apart in the source
[24] = parameters: key to Weight Gain: 1-high; 2-medium; 3-low probability; settings: cited from earlier work; for Weight Gain: Table 4A, grading of probability from literature reports
[25] = Table 4A; grading of probability from literature reports; cited from earlier work
[26] = parameters: key: 1-high; 2-medium; 3-low probability; settings: Table 4A; grading of probability from literature reports; cited from earlier work; remark: listed apart in the source
sigma, σ receptor [27] = settings: guinea-pig; cited from earlier work
5-HT6 receptor [28] = target: 5-HT6 receptor (Homo sapiens, UniProt P50406); settings: cited from earlier work
[29] = Table 2, sum of affinity ratios from data of Table 1

Sequence of D1 dopamine receptor (P21728 whole entry): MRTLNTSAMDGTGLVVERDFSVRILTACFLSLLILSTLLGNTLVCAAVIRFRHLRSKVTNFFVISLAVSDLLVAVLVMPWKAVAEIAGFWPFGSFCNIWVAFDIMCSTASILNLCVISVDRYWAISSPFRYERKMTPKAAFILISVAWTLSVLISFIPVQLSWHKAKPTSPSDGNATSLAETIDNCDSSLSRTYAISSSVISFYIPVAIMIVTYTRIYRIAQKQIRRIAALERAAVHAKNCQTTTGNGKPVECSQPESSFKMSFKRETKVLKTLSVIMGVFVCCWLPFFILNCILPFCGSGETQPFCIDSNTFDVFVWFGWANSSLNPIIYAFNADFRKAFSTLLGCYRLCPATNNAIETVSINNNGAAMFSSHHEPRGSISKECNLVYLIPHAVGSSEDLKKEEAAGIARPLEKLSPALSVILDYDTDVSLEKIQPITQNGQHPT
Sequence of 5-HT6 receptor (Rattus norvegicus, UniProt P31388) (P31388 whole entry): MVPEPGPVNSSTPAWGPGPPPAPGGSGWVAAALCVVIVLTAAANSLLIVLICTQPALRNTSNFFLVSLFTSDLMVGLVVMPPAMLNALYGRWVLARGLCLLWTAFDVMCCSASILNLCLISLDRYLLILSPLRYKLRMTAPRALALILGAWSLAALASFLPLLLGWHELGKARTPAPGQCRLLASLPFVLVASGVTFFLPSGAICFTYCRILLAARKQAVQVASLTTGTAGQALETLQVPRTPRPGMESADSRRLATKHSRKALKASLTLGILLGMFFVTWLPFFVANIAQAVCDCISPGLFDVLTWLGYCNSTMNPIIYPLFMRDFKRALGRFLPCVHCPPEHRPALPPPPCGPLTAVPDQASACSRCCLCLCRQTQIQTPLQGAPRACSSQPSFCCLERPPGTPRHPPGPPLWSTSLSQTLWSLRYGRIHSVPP
Sequence of 5-HT7 receptor (P32305 whole entry): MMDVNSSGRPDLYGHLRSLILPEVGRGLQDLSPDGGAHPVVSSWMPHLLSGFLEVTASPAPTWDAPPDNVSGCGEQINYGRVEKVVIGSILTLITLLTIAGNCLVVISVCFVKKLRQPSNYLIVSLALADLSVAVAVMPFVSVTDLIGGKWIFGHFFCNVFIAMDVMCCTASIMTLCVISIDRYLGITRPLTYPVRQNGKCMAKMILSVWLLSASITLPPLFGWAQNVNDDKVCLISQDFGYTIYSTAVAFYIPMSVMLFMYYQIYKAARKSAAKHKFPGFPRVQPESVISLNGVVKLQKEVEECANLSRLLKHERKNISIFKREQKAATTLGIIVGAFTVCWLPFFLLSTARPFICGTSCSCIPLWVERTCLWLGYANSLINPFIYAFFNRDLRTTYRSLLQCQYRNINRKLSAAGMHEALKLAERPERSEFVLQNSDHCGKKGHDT
Sequence of D3 dopamine receptor (P35462 whole entry): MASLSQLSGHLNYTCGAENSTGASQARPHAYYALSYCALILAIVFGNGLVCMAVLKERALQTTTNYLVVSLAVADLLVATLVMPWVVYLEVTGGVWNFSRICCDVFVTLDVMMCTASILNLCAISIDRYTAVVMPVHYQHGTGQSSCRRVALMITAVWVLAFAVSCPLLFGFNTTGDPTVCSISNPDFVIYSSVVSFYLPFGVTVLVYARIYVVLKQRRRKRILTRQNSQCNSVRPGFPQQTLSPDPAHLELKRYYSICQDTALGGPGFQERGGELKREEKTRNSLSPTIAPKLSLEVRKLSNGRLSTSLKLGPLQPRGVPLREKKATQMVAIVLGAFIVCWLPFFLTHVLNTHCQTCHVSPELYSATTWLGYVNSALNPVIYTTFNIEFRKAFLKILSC
Sequence of D2-L (long form of D2 receptor) (P14416 whole entry): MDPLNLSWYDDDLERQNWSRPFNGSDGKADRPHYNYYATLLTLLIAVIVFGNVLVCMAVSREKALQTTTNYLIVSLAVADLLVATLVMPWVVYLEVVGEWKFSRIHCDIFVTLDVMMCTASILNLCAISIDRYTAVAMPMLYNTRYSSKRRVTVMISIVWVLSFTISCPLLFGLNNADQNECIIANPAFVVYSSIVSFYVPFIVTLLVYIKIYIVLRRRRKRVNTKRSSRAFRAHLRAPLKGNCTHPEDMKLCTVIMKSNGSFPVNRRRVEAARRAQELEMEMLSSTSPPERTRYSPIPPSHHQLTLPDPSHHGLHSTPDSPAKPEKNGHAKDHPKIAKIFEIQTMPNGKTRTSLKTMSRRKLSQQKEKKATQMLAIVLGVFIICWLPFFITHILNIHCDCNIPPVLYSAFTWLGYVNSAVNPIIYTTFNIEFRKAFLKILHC
Sequence of D2 receptor (P14416 whole entry): as above
Sequence of 5-HT3 receptor (P46098 24-478): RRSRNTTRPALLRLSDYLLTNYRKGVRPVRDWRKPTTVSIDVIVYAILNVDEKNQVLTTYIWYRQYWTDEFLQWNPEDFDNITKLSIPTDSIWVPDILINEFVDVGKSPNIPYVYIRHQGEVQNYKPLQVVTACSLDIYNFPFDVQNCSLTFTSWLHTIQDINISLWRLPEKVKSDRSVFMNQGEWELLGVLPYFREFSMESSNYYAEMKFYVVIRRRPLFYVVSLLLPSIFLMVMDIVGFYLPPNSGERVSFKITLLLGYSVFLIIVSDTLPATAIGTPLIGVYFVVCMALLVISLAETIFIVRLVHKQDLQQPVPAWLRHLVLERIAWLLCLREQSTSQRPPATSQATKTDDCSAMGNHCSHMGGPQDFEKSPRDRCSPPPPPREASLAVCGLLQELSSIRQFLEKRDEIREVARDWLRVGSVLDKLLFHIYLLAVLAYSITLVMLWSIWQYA
Sequence of 5-HT2C receptor (Rattus norvegicus, UniProt P08909) (P08909 33-460): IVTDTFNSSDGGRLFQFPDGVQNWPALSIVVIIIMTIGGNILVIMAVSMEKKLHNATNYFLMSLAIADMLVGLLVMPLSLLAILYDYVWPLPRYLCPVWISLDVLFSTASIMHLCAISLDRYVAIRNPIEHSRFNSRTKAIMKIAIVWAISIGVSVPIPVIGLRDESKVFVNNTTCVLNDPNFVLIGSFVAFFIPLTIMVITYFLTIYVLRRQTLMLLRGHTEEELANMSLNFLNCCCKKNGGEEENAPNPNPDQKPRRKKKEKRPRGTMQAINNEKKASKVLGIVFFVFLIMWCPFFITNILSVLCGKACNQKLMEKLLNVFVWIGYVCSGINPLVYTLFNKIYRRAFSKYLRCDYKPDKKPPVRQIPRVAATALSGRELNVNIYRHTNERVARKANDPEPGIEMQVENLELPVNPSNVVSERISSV
Sequence of 5-HT1A receptor (Homo sapiens, UniProt P08908) (P08908 whole entry): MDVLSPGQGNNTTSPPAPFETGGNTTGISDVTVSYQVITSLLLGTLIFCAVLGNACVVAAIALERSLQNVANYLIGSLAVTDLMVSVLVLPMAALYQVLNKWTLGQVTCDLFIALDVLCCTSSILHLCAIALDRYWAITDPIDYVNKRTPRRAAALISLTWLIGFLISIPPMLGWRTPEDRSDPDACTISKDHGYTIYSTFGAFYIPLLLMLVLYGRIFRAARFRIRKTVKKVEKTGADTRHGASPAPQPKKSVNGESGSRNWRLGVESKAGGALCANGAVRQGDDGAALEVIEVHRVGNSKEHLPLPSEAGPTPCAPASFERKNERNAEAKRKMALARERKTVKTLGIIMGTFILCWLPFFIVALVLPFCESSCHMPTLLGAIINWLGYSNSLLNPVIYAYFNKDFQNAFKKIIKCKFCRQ
Sequence of 5-HT2A receptor (P28223 whole entry): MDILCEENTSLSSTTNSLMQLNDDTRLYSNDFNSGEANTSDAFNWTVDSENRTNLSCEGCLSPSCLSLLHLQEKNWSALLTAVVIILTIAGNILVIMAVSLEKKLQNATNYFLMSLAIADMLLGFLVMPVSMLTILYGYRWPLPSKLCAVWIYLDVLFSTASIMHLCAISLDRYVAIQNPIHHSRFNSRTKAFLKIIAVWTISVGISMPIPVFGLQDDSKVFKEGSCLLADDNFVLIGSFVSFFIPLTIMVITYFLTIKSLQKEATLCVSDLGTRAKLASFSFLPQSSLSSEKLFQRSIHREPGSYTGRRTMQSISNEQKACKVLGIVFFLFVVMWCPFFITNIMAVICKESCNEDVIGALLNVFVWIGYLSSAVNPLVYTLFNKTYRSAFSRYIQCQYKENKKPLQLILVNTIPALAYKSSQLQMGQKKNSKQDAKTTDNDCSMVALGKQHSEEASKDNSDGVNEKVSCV
Sequence of 5-HT6 receptor (Homo sapiens, UniProt P50406) (P50406 whole entry): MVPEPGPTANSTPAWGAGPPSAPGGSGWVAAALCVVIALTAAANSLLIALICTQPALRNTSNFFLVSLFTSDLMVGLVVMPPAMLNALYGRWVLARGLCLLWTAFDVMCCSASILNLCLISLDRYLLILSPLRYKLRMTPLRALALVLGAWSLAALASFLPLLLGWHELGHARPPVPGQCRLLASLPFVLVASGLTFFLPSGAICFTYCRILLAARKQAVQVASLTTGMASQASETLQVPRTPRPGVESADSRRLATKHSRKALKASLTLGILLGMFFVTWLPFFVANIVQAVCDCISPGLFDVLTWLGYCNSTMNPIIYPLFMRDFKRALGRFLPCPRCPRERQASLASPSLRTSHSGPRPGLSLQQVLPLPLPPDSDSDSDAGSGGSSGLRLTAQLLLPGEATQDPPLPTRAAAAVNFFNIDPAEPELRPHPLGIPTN
Sequence of D2-S (short form of D2 receptor) (P14416 1-414 isoform P14416-2): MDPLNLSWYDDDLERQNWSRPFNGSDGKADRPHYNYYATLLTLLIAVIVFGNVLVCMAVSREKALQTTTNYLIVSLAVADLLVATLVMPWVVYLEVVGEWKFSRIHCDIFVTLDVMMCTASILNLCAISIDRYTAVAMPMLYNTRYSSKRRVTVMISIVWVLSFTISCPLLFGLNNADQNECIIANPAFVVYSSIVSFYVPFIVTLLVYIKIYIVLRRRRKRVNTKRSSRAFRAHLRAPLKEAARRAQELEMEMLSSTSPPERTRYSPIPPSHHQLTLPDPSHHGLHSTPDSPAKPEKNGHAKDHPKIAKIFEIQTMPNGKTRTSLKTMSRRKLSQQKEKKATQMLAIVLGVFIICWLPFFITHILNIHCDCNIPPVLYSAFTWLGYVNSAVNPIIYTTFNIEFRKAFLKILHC

CC(C)n1cc2c3c(cccc31)[C@H]1C[C@@H](C(=O)NC3CCCCC3)CN(C)[C@@H]1C2 [Amesergide, N-cyclohexyl-1-isopropyl-6-methyl-ergoline-8-carboxamide]
effect on 5HT2A/2C mediated elevations of prolactin levels induced by D-fenfluramine [1]: block 5HT2A/2C mediated elevations of prolactin levels | day of maximum values of parent compounds or metabolites (4-hydroxy and desisopropyl species) [2]: 35 days | day of minimum values of parent compounds or metabolites [2]: 365 days

CCNC(=O)N1CCN(CCCC(c2ccc(F)cc2)c2ccc(F)cc2)CC1 [Amperozide]
5-HT2A/D2 (5-HT2A/D2): 1.23 | 5-HT1A affinity value (−logKi) (5-HT1A receptor [3]): 5.9^19 | mACh affinity value (−logKi) [4]: 6.3^19 | H1 affinity value (−logKi) (H1 histamine receptor): 6.9^19 | D1 affinity value (−logKi) (D1 dopamine receptor): 5.1^19 | 5-HT2C/D2 (2C/D2) (5-HT2C/D2): 0.92 | D2-L affinity value (−logKi) [5]: 6.4^3 | sigma affinity value (−logKi) (sigma, σ receptor [6]): 6.3^19 | α1 affinity value (−logKi) (α1-adrenoceptor [7]): 6.2^19 | 5-HT7 affinity value (−logKi) (5-HT7 receptor): 6.3^2 | (2C/2A) + (2C/D2) [8, 29]: 1.67 | H1/D2 (H1/D2): 1.08 | D3 affinity value (−logKi) (D3 dopamine receptor): 6.6^3 | 5-HT2C/5-HT2A (2C/2A) (5-HT2C/5-HT2A): 0.76 | D2-S affinity value (−logKi) [9]: 6.5^3 | 5-HT3 affinity value (−logKi) (5-HT3 receptor): <5^19 | 5-HT6 affinity value (−logKi) (5-HT6 receptor [10]): 7.2^2 | α2 affinity value (−logKi) (α2-adrenoceptor [11]): 5.5^19

COc1cc(C(C)=O)ccc1OCCCN1CCC(c2noc3cc(F)ccc23)CC1 [Iloperidone]
5-HT2C affinity value (−logKi) (5-HT2C receptor [12]): 7.4^10 | D1 affinity value (−logKi) (D1 dopamine receptor): 6.7^10 | α2 affinity value (−logKi) (α2-adrenoceptor [13]): 7.5^17 | 5-HT7 affinity value (−logKi) (5-HT7 receptor): 7.7^10 | α1 affinity value (−logKi) (α1-adrenoceptor [14]): 9.6^17 | 5-HT1A affinity value (−logKi) (5-HT1A receptor [15]): 6.8^18 | (2C/2A) + (2C/D2) [8, 29]: 1.79 | mACh affinity value (−logKi) [16]: <5^17 | D3 affinity value (−logKi) (D3 dopamine receptor): 8.1^10 | sigma affinity value (−logKi) (sigma, σ receptor [17]): 7.5^17 | 5-HT6 affinity value (−logKi) (5-HT6 receptor [10]): 7.4^10

CNCCO[C@]1(c2ccccc2)C[C@H]2CC[C@]1(C)C2(C)C [N-Desmethyl-deramciclane, (1R,2S,4R)-(−)-2-phenyl-2-(methylaminoethoxy)-1,7,7-trimethyl-bicyclo[2.2.1]heptane]
5-HT2A Affinity (5-HT2A receptor): 7 | Formula I Affinity Ratio ([8]; Table 3, calculated from known 5-HT2C/5-HT2A/D2 affinities): 2.20 | 5-HT2C receptor antagonism compared with deramciclane (5-HT2C receptor [18]): even more pronounced 5-HT2C receptor antagonism | D2 Affinity (D2 receptor): 7

CN1CC2c3ccccc3Oc3ccc(Cl)cc3C2C1 (centres unmarked) [ORG-5222]
5-HT2A/D2 (5-HT2A/D2): 1.10 | 5-HT2C/D2 (2C/D2) (5-HT2C/D2): 1.13 | (2C/2A) + (2C/D2) [8, 29]: 2.15 | H1/D2 (H1/D2): 1.02 | 5-HT2C/5-HT2A (2C/2A) (5-HT2C/5-HT2A): 1.02

O=c1[nH]c2ccccc2n1C1CCN(CCCC(c2ccc(F)cc2)c2ccc(F)cc2)CC1 [Pimozide]
D4 affinity value (−logKi) (D4 dopamine receptor [19]): 7.4^12 | D4 affinity value (−logKi) (D4 dopamine receptor [20]): 7.5^4 | 5-HT2C affinity value (−logKi) (5-HT2C receptor [21]): <5^1 | 5-HT6 affinity value (−logKi) (5-HT6 receptor [10]): 7.2^2

Cc1nc2n(c(=O)c1CCN1CCC(c3noc4cc(F)ccc34)CC1)CCCC2 [Risperidone]
Improvement negative symptoms [22]: 3 | Extra-pyramidal side effects [23]: 1 | Weight Gain [24]: 2-3 | Improvement cognitive deficits [25]: 2-3 | Increases prolactin levels [26]: 1

OCCOCCN1CCN(C2=Nc3ccccc3Sc3ccccc32)CC1 [Seroquel]
Improvement negative symptoms [22]: 3 | Extra-pyramidal side effects [23]: 2 | Weight Gain [24]: 2 | weight gain (in words) ([24]; text b109, literature reports): do cause weight gain | Improvement cognitive deficits [25]: 2-3 | Increases prolactin levels [26]: 3

O=C1NCCN1CCN1CCC(c2cn(-c3ccc(F)cc3)c3ccc(Cl)cc23)CC1 [Sertindole]
Improvement negative symptoms [22]: 2 | mACh affinity value (−logKi) [4]: <5.6^19 | D1 affinity value (−logKi) (D1 dopamine receptor): 6.89^19 | α1 affinity value (−logKi) (α1-adrenoceptor [7]): 8.7^19 | Extra-pyramidal side effects [23]: 3 | Weight Gain [24]: 2-3 | sigma affinity value (−logKi) (sigma, σ receptor [27]): 6.9^6 | 5-HT1A affinity value (−logKi) (5-HT1A receptor [15]): 6.6^6 | (2C/2A) + (2C/D2) ([8]; Table 4B): 1.91 | α2 affinity value (−logKi) (α2-adrenoceptor [11]): 6.5^19 | Increases prolactin levels [26]: 3 | 5-HT6 affinity value (−logKi) (5-HT6 receptor [28]): 9.13^19
